# Values of other authors as cited in patent US20120283197A1, “Compositions Comprising a Glucose Anti-Metabolite, BHA, and/or BHT” (priority 2011, published 2012).
# Legend:
# [1] = tested on: hexokinase or other glycolytic enzymes; conditions: extracts of mouse lung
# [2] = rats, fed for 18 months, 140 mg/Kg body weight per day
# [3] = tested on: adipocytes; conditions: rats, fed for 18 months, 140 mg/Kg body weight per day
# [4] = tested on: cultured insulin secreting cells
# [5] = mice, dogs, and other species
structure (smiles),measurement,setting,value
"Cc1cc(C(C)(C)C)c(O)c(C(C)(C)C)c1 [BHT, butylated hydroxytoluene]",effect on hexokinase or other glycolytic enzymes,[1],no effect
same,insulin sensitivity,[2],increased insulin sensitivity
same,age-related reduction in insulin-stimulated glucose transport in adipocytes,[3],partially ameliorated
"COc1ccc(O)c(C(C)(C)C)c1 [BHA, butylated hydroxyanisole]",alloxan-induced increase in insulin secretion,[4],prevent the alloxan-induced increase in insulin secretion
same,negative effects of alloxan,[4],blocked the negative effects of alloxan
"O=C(CO)[C@@H](O)[C@@H](O)[C@H](O)[C@H](O)CO [Mannoheptulose, mannoheptulose]",plasma insulin levels and/or insulin sensitivity,[5],lower plasma insulin levels and/or increase insulin sensitivity
